# Like-named read-outs stand apart in the source and are kept apart here.
# Assays:
# [1] = tested on: Vero cells; details: with T-705
# [2] = tested on: influenza virus (PR/8/34 (H1N1)); format: cell-based; details: for IC50: Vero cells, 2 days, read-out: The 50% CPE inhibitory concentration of T-705
SMILES,Effect on intracellular T-705RTP amount after T-705 treatment [1],CPE inhibitory effect ([2]; 6-methylmercaptopurine riboside 10 μM alone),IC50 ([2]; T-705 alone (6-methylmercaptopurine 0 μM)) [µM],50% CPE inhibitory concentration of T-705 in combination compared to T-705 alone ([2]; in combination with 6-methylmercaptopurine riboside),IC50 ([2]; with 6-methylmercaptopurine 0.1 μM) [µM],IC50 ([2]; with 6-methylmercaptopurine 0.3 μM) [µM],IC50 ([2]; with 6-methylmercaptopurine 1 μM) [µM],IC50 ([2]; with 6-methylmercaptopurine 3 μM) [µM],IC50 ([2]; with 6-methylmercaptopurine 10 μM) [µM]
CSc1ncnc2c1ncn2[C@@H]1O[C@H](CO)[C@@H](O)[C@H]1O [6-methylmercaptopurine riboside],increased,did not show a CPE inhibitory effect,,,,,,,
NC(=O)c1nc(F)cnc1O [T-705],,,183,lower,89.4,48.9,30.6,21.9,20.2
